We go through 11 compounds from patent publication US4654342A, “6-(cyanoguanidinophenyl)pyridazinones as cardiac stimulants” (Smith Kline & French Laboratories Ltd., priority 1984, dated 1987).

Where two headings read alike, the source gives them in different places.

The target in one experiment is T1, Type (III) PDE (Cavia porcellus, UniProt H0VIU9).
T1 construct: phosphodiesterases (PDE) isolated from guinea pig ventricle; from tissue; host or cells: guinea pig ventricle; forms separated by ion-exchange chromatography
T1 sequence (H0VIU9 1-1132): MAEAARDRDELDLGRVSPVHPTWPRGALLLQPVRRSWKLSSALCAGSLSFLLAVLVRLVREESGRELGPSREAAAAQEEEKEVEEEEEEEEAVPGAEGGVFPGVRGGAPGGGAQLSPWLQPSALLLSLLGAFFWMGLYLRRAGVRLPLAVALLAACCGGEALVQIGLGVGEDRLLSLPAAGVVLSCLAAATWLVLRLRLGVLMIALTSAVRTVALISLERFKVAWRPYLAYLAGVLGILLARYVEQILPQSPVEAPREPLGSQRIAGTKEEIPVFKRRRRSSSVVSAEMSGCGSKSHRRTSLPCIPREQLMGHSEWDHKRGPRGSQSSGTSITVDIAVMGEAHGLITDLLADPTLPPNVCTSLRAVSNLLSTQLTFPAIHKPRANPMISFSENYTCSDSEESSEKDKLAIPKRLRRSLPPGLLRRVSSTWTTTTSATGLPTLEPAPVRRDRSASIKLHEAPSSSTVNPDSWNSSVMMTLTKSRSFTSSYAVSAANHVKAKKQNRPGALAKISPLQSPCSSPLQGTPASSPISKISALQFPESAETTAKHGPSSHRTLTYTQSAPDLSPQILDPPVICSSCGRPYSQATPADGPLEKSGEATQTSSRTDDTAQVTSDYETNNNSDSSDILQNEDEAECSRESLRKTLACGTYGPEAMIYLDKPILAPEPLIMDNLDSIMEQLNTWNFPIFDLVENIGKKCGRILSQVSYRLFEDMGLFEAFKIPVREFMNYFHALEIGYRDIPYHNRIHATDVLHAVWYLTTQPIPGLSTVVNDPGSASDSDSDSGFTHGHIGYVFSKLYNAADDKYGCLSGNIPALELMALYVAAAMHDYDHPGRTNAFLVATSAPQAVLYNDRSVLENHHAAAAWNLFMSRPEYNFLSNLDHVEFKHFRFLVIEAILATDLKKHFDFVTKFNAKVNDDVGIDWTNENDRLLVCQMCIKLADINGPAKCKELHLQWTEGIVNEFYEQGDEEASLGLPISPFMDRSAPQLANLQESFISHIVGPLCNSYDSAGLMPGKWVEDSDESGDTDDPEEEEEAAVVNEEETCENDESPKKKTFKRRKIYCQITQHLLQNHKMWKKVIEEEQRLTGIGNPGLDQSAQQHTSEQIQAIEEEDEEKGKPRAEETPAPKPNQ
In words: Phosphodiesterase Type (III) inhibition. Particulars: 1 μm cyclic AMP, 10 minutes; 10 minutes pre-incubation; read-out: IC50, inhibition of `low Km` Type (III) PDE activity. The format is biochemical, guinea pig. As to the method:
The products of Example 13 were tested for selectivity as inhibitors of the phosphodiesterases (PDE) isolated from guinea pig ventricle. Three forms of PDE were isolated by ion-exchange chromatography using the method of Thompson et al, Adv. Nucleotide Research, vol 10, p 69, Brooker et al (Eds), Raven Press, 1979.
In separate experiments with the (-)-isomer, the (+)-isomer and racemic material, following a 10 minutes pre-incubation of the test compound with Type (III) PDE, PDE activity was measured at 1 μm cyclic AMP for 10 minutes (using a modification of the method of Davis and Daly, Journal of Cyclic Nucleotide Research, vol 5, p 65, Raven Press, 1979). IC50 values were obtained for inhibition of `low Km` Type (III) PDE activity: […]

For the next experiment, the system named is right ventricular strips. In words: Cardiac stimulant activity in vitro, guinea pig ventricular strips (force of contraction). As to the method: The compounds of formula (I) and their pharmaceutically acceptable salts are tested for cardiac stimulant activity following a procedure based on that of S. C. Verma and J. H. McNeill (J.Pharm & Exp. Therapeutics, 200, 352-362 (1977)). Guinea pigs (500-700 g) of either sex are sacrificed and the hearts are quickly removed and transferred to a dissecting dish containing oxygenated bathing fluid. While in the bathing medium, the right ventricle is cut into two strips. The strips are each suspended in a 50 ml bath containing Krebs Henseleit solution at 37° C., and the bath is bubbled with 95% oxygen and 5% carbon dioxide. The ventricular strips are electrically stimulated at a frequency of 1.0 Hz, at double the threshold voltage. A resting tension of 1.0 g is applied to the strips and the tension is kept constant by readjustment during an equilibration period of 60 minutes. The bathing fluid is frequently changed during this period. When a steady base line is obtained, a compound under test is added to the bathing fluid and a cumulative concentration response curve is plotted. The compounds for use in the present invention which were tested gave a 50% increase in the force of contraction of the ventricular strips at concentrations in the bathing fluid of less than 10^-4 molar, thus showing that they have activity as positive inotropic agents.

The next experiment relates to hindquarters blood flow. In words: Vasodilator activity, anaesthetised rat hindquarters autoperfused at constant blood pressure. The format is in vivo. Particulars: anaesthetised rat hindquarters screen. The text has this: The dose to increase hindquarters blood flow by 50% was 4.6 μmol/Kg.
Experiment [1] concerns left ventricular dp/dt max. In words: Cardiac stimulant activity in vivo, anaesthetised cats (left ventricular dp/dt max). The following applies: for positive inotropism, relative to the (+)-isomer: anaesthetised cat screen; for ED50: Felis catus, intravenous, dose to increase left ventricular dp/dt max by 50%, anaesthetised cats; for Relative Duration: estimated in anaesthetised cats following i.v. administration. Further details: species or system cat; key to Relative Duration: ***: long; **: medium; *: short. From the text: The dose to increase left ventricular dp/dt max by 50% is given as the ED50.

Experiment [2] deals with hindquarters perfusion pressure. The experiment in a line: Vasodilator activity, anaesthetised cat hindquarters autoperfused at constant blood flow. The format is in vivo. Particulars: for vasodilatation, relative to the (+)-isomer: anaesthetised cat screen; for ED15: Felis catus, anaesthetised cat, constant blood flow, read-out: dose to decrease hindquarters perfusion pressure (vasodilatation) by 15%. As to the method: The compounds of Examples 3, 4, 5 and 8 were tested in autoperfused anaesthetised cat hindquarters (autoperfused at constant blood flow). The doses to decrease hindquarters perfusion pressure (vasodilatation) by 15% are given below: […]

Experiment [3] concerns left ventricular dp/dt max. The experiment in a line: Cardiac stimulant activity in vivo, conscious dogs (left ventricular dp/dt max). Further details: species or system dog. The method, then: Oral administration caused positive inotropic responses at doses of 0.25 mg/kg and below. […] Therefore this compound is particularly beneficial with regard to `force-rate` selectivity.

[4] abbreviates: in vitro, read-out: EC50 value, inotropic activity on guinea pig ventricular strip.
Where [5] appears, read: Cavia porcellus, 50% increase in force of contraction, guinea pig ventricular strips, read-out: EC50 × 10^-6 M.

As usually defined, the IC50 is the concentration that inhibits the measured activity by half. With `CC1CC(=O)NN=C1c1ccc(N)cc1` (racemic) [racemate, 6-(4-aminophenyl)-5-methyl-4,5-dihydro-3(2H)-pyridazinone], the IC50 on Type (III) PDE turned out to be 37 ± 12.9 µM.

As for `CC1CC(=O)NN=C1c1ccc(N)cc1` (single isomer, unassigned; (+)) [(+)-isomer, (+)-6-(4-aminophenyl)-5-methyl-4,5-dihydro-3(2H)-pyridazinone], the IC50 at Type (III) PDE amounted to 207 ± 88 µM. Besides, the EC50 with right ventricular strips (setting [4]) was 11.3 µM.

Regarding `CNC(=NC#N)Nc1ccc(C2=NNC(=O)CC2C)cc1` (single isomer, unassigned; (+)) [Example 15, (+)-6-[4-(N^3 -Methyl-N^2-cyanoguanidino)phenyl]-5-methyl-4,5-dihydro-3(2H)-pyridazinone], the IC50 on Type (III) PDE is 11.3 ± 5.4 µM. For the same compound, in the experiment on right ventricular strips (setting [4]), the EC50 came out at 4.3 µM. For the same compound, the “dose to increase hindquarters blood flow by 50%” value with hindquarters blood flow was 8.6 µM/kg.

`CC1CC(=O)NN=C1c1ccc(N)cc1` (single isomer, unassigned; (-)) [(-)-isomer, (-)-6-(4-aminophenyl)-5-methyl-4,5-dihydro-3(2H)-pyridazinone]: the “positive inotropism, relative to the (+)-isomer” value in experiment [1] is listed as “more active than the (+)-isomer”. For the same compound, the “vasodilatation, relative to the (+)-isomer” value in experiment [2] is given as “more active than the (+)-isomer”. Also, the IC50 on Type (III) PDE was 9.6 ± 3.4 µM. Besides, the EC50 in the experiment on right ventricular strips (setting [4]) came to 1.4 µM.

On to `CNC(=NC#N)Nc1ccc(C2=NNC(=O)CC2C)cc1` (single isomer, unassigned; (-)) [Example 14, (-)-6-[4-(N^3 -Methyl-N^2-cyanoguanidino)phenyl]-5-methyl-4,5-dihydro-3(2H)-pyridazinone], for which the “positive inotropism, relative to the (+)-isomer” value in experiment [1] is “more active than the corresponding (+)-isomer of Example 15”. Moreover, in experiment [2], the “vasodilatation, relative to the (+)-isomer” value was “more active than the corresponding (+)-isomer of Example 15”. In addition, the IC50 on Type (III) PDE turned out to be 1.7 ± 1 µM. Further, in the experiment on right ventricular strips (setting [4]), the EC50 is 0.71 µM. In the experiment with hindquarters blood flow, the “dose to increase hindquarters blood flow by 50%” value was found to be 2.4 µM/kg.

As for `Nc1cc(-c2ccncc2)c[nH]c1=O` [Amrinone, reference compound], in experiment [1], the ED50 was found to be 5.6 µmol/kg and the “Relative Duration” value is given as “*”. Further, in experiment [3], the “activity relative to compound of Example 1” value is listed as “less active” and the “duration relative to compound of Example 1” value is recorded as “of shorter duration”. In the experiment with right ventricular strips (setting [5]), the EC50 is 15 µM.

For the compound `CCNC(=NC#N)Nc1ccc(C2=NNC(=O)CC2C)cc1` (stereo not drawn) [Example 3, 6-[4-(N^3 -Ethyl-N^2-cyanoguanidino)phenyl]-5-methyl-4,5-dihydro-3(2H)-pyridazinone], in experiment [1], the ED50 amounted to 0.2 µmol/kg and the “Relative Duration” value is recorded as “***”. For the same compound, the ED15 in experiment [2] turned out to be 0.044 mg/kg. The EC50 in the experiment on right ventricular strips (setting [5]) turned out to be 1.4 µM.

`CC(C)NC(=NC#N)Nc1ccc(C2=NNC(=O)CC2C)cc1` (stereo not drawn) [Example 4, 6-[4-(N^3 -Isopropyl-N^2-cyanoguanidino)phenyl]-5-methyl-4,5-dihydro-3(2H)-pyridazinone]: in experiment [1], the ED50 turned out to be 0.2 µmol/kg and the “Relative Duration” value is reported as “**”. In addition, the ED15 in experiment [2] was 0.082 mg/kg. In addition, the EC50 in the experiment with right ventricular strips (setting [5]) stood at 0.8 µM.

For the compound `CCCCNC(=NC#N)Nc1ccc(C2=NNC(=O)CC2C)cc1` (stereo not drawn) [Example 5, 6-[4-(N^3 -Butyl-N^2-cyanoguanidino)phenyl]-5-methyl-4,5-dihydro-3(2H)-pyridazinone], in experiment [1], the ED50 came out at 0.31 µmol/kg and the “Relative Duration” value was “**”. Moreover, the ED15 in experiment [2] is 0.13 mg/kg. Moreover, the EC50 in the experiment on right ventricular strips (setting [5]) stood at 8.5 µM.

In the case of `CC1CC(=O)NN=C1c1ccc(NC(N)=NC#N)cc1` (stereo not drawn) [Example 6, 6-[4-(N^2 -Cyanoguanidino)phenyl]-5-methyl-4,5-dihydro-3(2H)-pyridazinone], in experiment [1], the ED50 was 0.7 µmol/kg and the “Relative Duration” value is “***”. Also, the EC50 in the experiment on right ventricular strips (setting [5]) turned out to be 1.4 µM.

As for `CNC(=NC#N)Nc1ccc(C2=NNC(=O)CC2)cc1` [Example 8, 6-[4-(N^3 -Methyl-N^2-cyanoguanidino)phenyl]-4,5-dihydro3(2H)-pyridazinone], in experiment [1], the ED50 was 1.6 µmol/kg and the “Relative Duration” value was “**”. Besides, the ED15 in experiment [2] came to 1 mg/kg. The activation at 31.6 µM in the experiment with right ventricular strips (Cavia porcellus, at 31.6 × 10^-6 M, read-out: increase in force of contraction (printed in EC50 column)) was determined as 40%.
